Reference: patent US20150094345A1, “PHARMACEUTICAL FORMULATION HAVING IMPROVED STABILITY” (priority 2012, published 2015)

Experiment: 6-month stability study of the compositions (impurity concentrations)
Format: physicochemical

concentration of the main decomposition product of amlodipine besylate (European Pharmacopeia: Impurity D) (any storage condition, 6-month stability testing period, composition containing ramipril and amlodipine): ≤ 0.05%
stability of amlodipine besylate in the combination dosage form (until the end of the six-month stability testing period): remains stable
SMILES: CCOC(=O)C1=C(COCCN)NC(C)=C(C(=O)OC)C1c1ccccc1Cl (centres unmarked) [amlodipine besylate]
